Laboratory results reported in patent US11261210B2, “Glycosylated antitumor ether lipids as novel cancer stem cell cytotoxic agents” (UNIVERSITY OF MANITOBA, priority 2012, dated 2022).

Legend:
[1] = tested on: BT-474 stem cell tumorspheres; assay: Viability of BT-474 stem cell tumorspheres (MTS assay); format: cell-based, human; details: for Viability (% 0f control) / loss of viability / toxicity against the cancer stem cells: 6 days; for Viability (% 0f control): Table 2; for toxicity against the cancer stem cells: BT-474 spheroids
Method: FIG. 6. Effect of β-O-Gln, α-O-Gln, β-C-Gln and ET-18-OCH3 on the viability of BT-474 stem cell tumorspheres. BT-474 cancer stem cells were grown for 7 days in ultra low adhesion 6 well plates. The tumorspheres formed were harvested, trypsinised and cell numbers were determined. Equal numbers of cells were dispersed into 48-well plates in mammocult medium and incubation was under static conditions. Wells with only medium but no cells were treated in an identical manner to serve as blanks. After spheres were formed, β-O-Gln, α-O-Gln, β-C-Gln or ET-18-OCH3 (0, 10, 20, 30 μM) were added and incubation was for a total of 6 days. At the end of the incubation, the MTS reagent was added to each well and the plates were rotated on a Nutator mixer in a 5% CO2 incubator for 4 h. The absorbance of each well was read at 470 nm. The results are the means±standard deviation of 4 independent determinations.
(§1) Cell viability assay: Cell viability was determined by the Cell Titre 96 Aqueous One solution proliferation assay ((MTS assay; Promega) according to the instructions of the manufacturer.
The viability of the material at the end of the incubation was determined using the MTS assay. […] In cells incubated with 10 μM of β-C-Gln, 90% of the cells were not viable. […] In contrast, in experiments with ET-18-OCH3, 10 or 20 μM ET-18-OCH3 had little effect on the viability of BT-474 spheroids and at a concentration of 30 μM viability was around 45% relative to controls. The results of the integrity studies correlate well with the viability studies.
We also investigated the effect of α-O-Galn, β-O-Galn or α-O-Mann on the viability of BT-474 spheroids. The spheroids were incubated with the compounds for 6 days and the viability was assessed by the MTS assay. […] Viability was down to around 10% at 10 μM concentration of the compound. […] At a concentration of 30 μM a significant proportion (26-32%) of the BT-474 cancer stem cells were still viable. The cytotoxic efficacy of GAELs is dependent on the type of sugar moiety and the anomeric form in some instances.

[2] = tested on: JIMT1 stem cell tumorspheres; assay: Viability of JIMT1 stem cell tumorspheres (MTS assay); format: cell-based, human; details: 6 days
Method: FIG. 8. Effect of β-O-Gln, α-O-Gln, β-C-Gln and ET-18-OCH3 on the viability of JIMT1 stem cell tumorspheres. BT-474 cancer stem cells were grown for 7 days in ultra low adhesion 6-well plates. The tumorspheres formed were harvested, trypsinised and cell numbers were determined. Equal numbers of cells were dispersed into 48-well non-treated plates in mammocult medium and incubation was under static conditions. Wells with only medium but no cells were treated in an identical manner to serve as blanks. After spheres were formed, O-Gln, C-Gln or ET-18-OCH3 (0, 10, 20, 30 μM) were added and incubation was for a total of 6 days. At the end of the incubation, the MTS reagent was added to each well and the plates were mixed in a nutator in a 5% CO2 incubator for 4 h. The absorbance of each well was read at 470 nm. The results are the means±standard deviation of 4 independent determinations.
as §1
The viability of cells in spheroids incubated with 20 or 30 μM ET-18-OCH3 was between 30-40% of controls.

cancer cell lines = details: Xu et al., ChemMedChem in press; cited from earlier work
cancer stem cells = assay: Tumorsphere formation by freshly sorted cancer stem cells; format: cell-based, human; details: added to freshly sorted cancer stem cells, 10 μM and above, 6 days
Source text: Breast cancer stem cell enriched cell population was obtained by staining breast cancer cell lines BT-474 and JIMT-1 for aldehyde dehydrogenase 1 (ALDH1) using the assay kit from Stem Cell Technologies (Vancouver BC, Canada) according to the instructions of the manufacturer with the appropriate controls. BT-474 is a ductal carcinoma cell line (Lasfargues E Y, Coutinho W G, Dion A S (1979) A human breast tumor cell line (BT-474) that supports mouse mammary tumor virus replication. In Vitro 15, 723-729) while JIMT-1 is a carcinoma cell line that is resistant to herceptin (Tanner M, Kapanen A J, Junttila T, Raheem O, Grenman S, Elo J, Elenius K, Isola J (2004). Characterization of a novel cell line established from a patient with herceptin-resistant breast cancer. Mol Cancer Ther 3, 1585-1592). Following the staining, the cells stained for ALDH1 were sorted from the bulk population by flow cytometry on a 4 laser MoFloXPP high speed/pressure cell sorter. The cells were pelleted by centrifugation, resuspended in supplemented Mammocult medium (Stem Cell Technologies) and dispersed into ultra-low adhesive 6-well plates or 35 mm dishes for 7 days to allow the formation of spheroids (mammospheres). After 7 days, the spheres were separated from single cells (dead non-stem cells) by sieving the contents of the well through a […] nylon cell strainer (BD Falcon). The spheres retained in the sieve are washed with Hanks buffer and subsequently trypsinised to obtain a single cell suspension of cancer stem cells. The cell numbers were determined with a Coulter ZM counter and the cells were seeded into the appropriate low adhesion tissue culture ware for various studies.
AEL solutions in ethanol were diluted into supplemented mammocult medium generally at twice the desired final concentration. A volume equal to that in the wells was added to dilute the drug to the desired concentration in each well. Subsequently any further addition of drug to the wells, utilized AEL solution prepared at the desired concentration. […]

[3] = Generation of large acidic vacuoles; format: cell-based
Source text: Autophagy 5, 835-84663). Furthermore an active endocytosis pathway was essential for GAEL activity (Samadder P, Byun H-S, Bittman R, Arthur G (2011) The endocytosis pathway is required for the cytotoxic effects of glycosylated antitumor ether lipids, Anticancer Res 31, 3809-3818). The generation of the large acidic vacuoles is a hallmark of this non-apoptosis death pathway induced by GAELs.

[4] = tested on: JIMT-1 stem cell spheroids; assay: Morphology of JIMT-1 stem cell spheroids; format: cell-based, human; details: 6 days, FIG. 7B
Method: FIG. 7. A. Effect of β-O-Gln, β-C-Gln or ET-18-OCH3 on morphology of JIMT-1 stem cell spheroids. B. Effect of β-O-Gln, α-O-Gln or ET-18-OCH3 on morphology of JIMT-1 stem cell spheroids. JIMT-1 cancer stem cells were grown for 7 days in ultra low adhesion 6 well plates. The tumorspheres formed were harvested, trypsinised and cell numbers were determined. Equal numbers of cells were dispersed into 48-well non-treated plates in mammocult medium and incubated in a CO2 incubator under static conditions. After spheres were formed, O-Gln, C-Gln or ET-18-OCH3 were added (0, 10, 20 and 30 μM) and incubation was for a total of 6 days with media supplementation after 3 days. Images for FIG. 7A were taken at day 0 and after 72 h following addition of the compounds. Images for FIG. 7B were taken after 6 days incubation with the compounds.
The above studies were repeated with JIMT-1 spheroids.

BT474 cancer stem cells = assay: Trypan blue dye exclusion viability of BT474 cancer stem cells; format: cell-based, human; details: BT474 cancer stem cells incubated with compound
Method: Trypan blue dye exclusion assay using the TC10 automated cell counter (BioRad) was also used for some studies.
We investigated the effects of the GAELs and the ALPET-18-OCH3 on the ability of the cancer stem cells to form tumorspheres. […] This was a concentration dependent event and at concentrations greater than 10 μM spheroid formation was completely disrupted.

BT-474 cancer stem cells = assay: BT-474 cancer stem cell spheroid formation; format: cell-based, human; details: BT474 cancer stem cells, FIG. 1B
Method: FIG. 1. A. Effect of β-C-Gln (β-AC1) on BT-474 cancer stem cell spheroid formation. BT-474 cancer stem cells were obtained by staining BT474 cells for ALDH1 and sorting the stained from unstained cells by flow cytometry. The ALDH1 stained cells were grown in ultra-low adhesion 6-well plates in mammocult medium for 7 days. The spheroids were isolated and trypsinised to generate single cells. The cells were then seeded for 2 days in ultra-low adhesion 6-well plates, and subsequently incubated in the absence or presence of C-Gln for up to 12 days. The media was replenished after 6 days. B. Effect of β-O-Gln (β-AO1), α-O-Gln (α-AO1), or ET-18-OCH3 on BT-474 cancer stem cell spheroid formation.
Breast cancer stem cell enriched cell population was obtained by staining breast cancer cell lines BT-474 and JIMT-1 for aldehyde dehydrogenase 1 (ALDH1) using the assay kit from Stem Cell Technologies (Vancouver BC, Canada) according to the instructions of the manufacturer with the appropriate controls. […] The cell numbers were determined with a Coulter ZM counter and the cells were seeded into the appropriate low adhesion tissue culture ware for various studies. […]

CCCCCCCCCCCCCCCCCCOCC(COP(=O)([O-])OCC[N+](C)(C)C)OC (stereo not shown) [ET-18-OCH3, 1-O-octadecyl-2-O-methyl-glycerophosphocholine, reference compound]
viability at 30 µM ([1]; Homo sapiens, BT-474, 144 h, read-out: viability relative to controls): ~45% | viability, % of controls ([2]; 20 or 30 μM): 30-40 % of controls | cytotoxicity at 10 µM ([2]; Homo sapiens, JIMT-1, 144 h, 10 μM, read-out: loss of viability): 40%

CCCCCCCCCCCCCCCCOC[C@H](CS[C@H]1O[C@H](CO)[C@@H](O)[C@H](O)[C@H]1N)OC [α-AS2, 1-O-Hexadecyl-2-O-methyl-3-S-(2′-amino-2′-deoxy-α-D-glucopyranosyl)-sn-glycerol]
cytotoxicity compared to β-O-Gln (β-AO1) (cancer cell lines): not as active as β-O-Gln

CCCCCCCCCCCCCCCCOC[C@H](COC1O[C@H](CO)[C@H](O)[C@H](O)[C@H]1N)OC (stereo partly drawn) [α-O-Galn, 1-O-Hexadecyl-2-O-methyl-3-O-(2′-amino-2′-deoxy-D-galactopyranosyl)-sn-glycerol]
Viability (% 0f control) ([1]; 10 μM): around 10 % 0f control | Viability (% 0f control) ([1]; 10 μM, listed as α-Galn): 9.64 % 0f control | Viability (% 0f control) ([1]; 20 μM, listed as α-Galn): 0 % 0f control | Viability (% 0f control) ([1]; 30 μM, listed as α-Galn): 0 % 0f control | loss of viability ([1]; 20 or 30 μM): Complete loss of viability | toxicity against the cancer stem cells [1]: quite toxic | spheroid formation (cancer stem cells): unable to form spheroids | generation of large acidic vacuoles [3]: generation of these vacuoles

CCCCCCCCCCCCCCCCOC[C@H](COC1O[C@H](CO)[C@@H](O)[C@H](O)[C@H]1N)OC (stereo partly drawn) [α-O-Gln, 1-O-Hexadecyl-2-O-methyl-3-O-(2′-amino-2′-deoxy-D-glucopyranosyl)-sn-glycerol]
spheroid integrity [4]: complete disintegration of the spheroids | loss of viability ([1]; 10 μM): about 60% | loss of viability ([1]; 20 or 30 μM): total loss of viability | spheroid formation (cancer stem cells): unable to form spheroids | viability (trypan dye exclusion) (BT474 cancer stem cells): not viable | cytotoxicity compared to β-O-Gln (β-AO1) (cancer cell lines): superior activity | generation of large acidic vacuoles [3]: generation of these vacuoles | spheroid formation (BT-474 cancer stem cells): unable to form spheroids | loss of viability ([2]; 10 μM): 90% | loss of viability ([2]; 20 or 30 μM): Complete loss of viability

CCCCCCCCCCCCCCCCOCC(CO[C@H]1O[C@H](CO)[C@@H](O)[C@H](O)[C@@H]1N)OC (stereo partly drawn) [α-O-Mann]
Viability (% 0f control) ([1]; 10 μM): 134.3 % 0f control | Viability (% 0f control) ([1]; 20 μM): 58.84 % 0f control | Viability (% 0f control) ([1]; 30 μM, listed as α-Mann): 25.9 % 0f control | toxicity against the cancer stem cells [1]: not as active as α-O-Galn

CCCCCCCCCCCCCCCCOC[C@H](CS[C@@H]1O[C@H](CO)[C@@H](O)[C@H](O)[C@H]1N)OC [β-AS1, 1-O-Hexadecyl-2-O-methyl-3-S-(2′-amino-2′-deoxy-β-D-glucopyranosyl)-sn-glycerol]
cytotoxicity compared to β-O-Gln (β-AO1) (cancer cell lines): not as active as β-O-Gln

CCCCCCCCCCCCCCCCOC[C@H](COC1O[C@H](CO)[C@H](O)[C@H](O)[C@H]1N)OC (stereo partly drawn) [β-O-Galn, 1-O-Hexadecyl-2-O-methyl-3-O-(2′-amino-2′-deoxy-D-galactopyranosyl)-sn-glycerol]
Viability (% 0f control) ([1]; 10 μM, listed as β-Galn): 153.7 % 0f control | Viability (% 0f control) ([1]; 20 μM, listed as β-Galn): 48.0 % 0f control | Viability (% 0f control) ([1]; 30 μM, listed as β-Galn): 32.16 % 0f control | toxicity against the cancer stem cells [1]: not as active as α-O-Galn
